Assay results published in patent US4349545A, “Novel erythromycin a derivatives” (Roussel Uclaf, priority 1980, dated 1982).
≈ marks a conversion by molar mass, not a printed value.

What was measured:
[1] = system: Streptococcus pyogenes A 561; assay: serial dilution liquid medium MIC, Streptococcus pyogenes A 561; type: cell-based; settings: A561, 24 hours at 37° C., read-out: minimum inhibiting concentration (MIC)
Procedure: (§1) The method was a serial dilution of liquid medium test wherein a series of tubes were prepared containing the same amount of sterile nutritive medium and increasing amounts of the test product was distributed in each tube. The tubes were then seeded with a bacterial strain and incubated for 24 hours in an oven at 37° C. The degree of inhibition was determined by transillumination to determine the minimum inhibiting concentration (MIC) express in μg/ml and the results are reported in the following Tables.

[2] = system: Streptococcus faecalis 99 F 74; assay: serial dilution liquid medium MIC, Streptococcus faecalis 99 F 74; type: cell-based; settings: Enterococcus faecalis, 99F74, 24 hours at 37° C., read-out: minimum inhibiting concentration (MIC)
Procedure: as §1

[3] = system: Staphylococcus aureus exp. n° 54 146; assay: serial dilution liquid medium MIC, Staphylococcus aureus exp. n° 54 146; type: cell-based; settings: Staphylococcus aureus exp. 54 146; 24 hours at 37° C.; read-out: minimum inhibiting concentration (MIC)
Procedure: as §1

[4] = system: Streptococcus faecalis 5432; assay: serial dilution liquid medium MIC, Streptococcus faecalis 5432; type: cell-based; settings: Enterococcus faecalis, 24 hours at 37° C., read-out: minimum inhibiting concentration (MIC)
Procedure: as §1

[5] = system: Staphylococcus aureus No. 54,146; assay: In vivo activity in mice experimentally infected with Staphylococcus aureus No. 54,146; settings: groups of 10 mice
Procedure: The test was effected with the compounds of the invention and erythromycin as a reference on groups of 10 mice weighing about 21 g experimentally infected with Staphylococcus aureus No. 54,146 by intraperitoneal administration of 0.5 ml of a 22 hour culture of the said organism in bouillon with a pH of 7 diluted to 1/6 with physiological water. The test compounds were orally administrated to the mice 1,5 and 24 hours after the infection and the mortality on the 8th day was determined.

[6] = system: Streptococcus faecalis 5435; assay: serial dilution liquid medium MIC, Streptococcus faecalis 5435; type: cell-based; settings: Enterococcus faecalis, 24 hours at 37° C., read-out: minimum inhibiting concentration (MIC)
Procedure: as §1

[7] = system: Staphylococcus aureus UC 1128; assay: serial dilution liquid medium MIC, Staphylococcus aureus UC 1128 pen-resistant; type: cell-based; settings: UC1128; Staphylococcus aureus UC 1128 pen-resistant; 24 hours at 37° C.; read-out: minimum inhibiting concentration (MIC)
Procedure: as §1

[8] = system: Staphylococcus aureus 1061; assay: serial dilution liquid medium MIC, Staphylococcus aureus 1061 pen-sensibles; type: cell-based; settings: 24 hours at 37° C., read-out: minimum inhibiting concentration (MIC)
Procedure: as §1

[9] = dose 0,5mg oral, 1,5 and 24 hours after infection
[10] = dose 0,25mg oral, 1,5 and 24 hours after infection
[11] = dose 0,75mg oral, 1,5 and 24 hours after infection
[12] = dose 1mg oral, 1,5 and 24 hours after infection

Structure (SMILES) | MIC [1] [µg/mL] | MIC [2] [µg/mL] | MIC [3] [µg/mL] | MIC [4] [µg/mL] | No. of mice living on the 8th day [5, 9] [mice] | No. of mice living on the 8th day [5, 10] [mice] | No. of mice living on the 8th day [5, 11] [mice] | No. of mice living on the 8th day [5, 12] [mice] | MIC [6] [µg/mL] | MIC [7] [µg/mL] | MIC [8] [µg/mL]
CC[C@H]1OC(=O)[C@H](C)[C@@H](O[C@H]2C[C@@](C)(OC)[C@@H](O)[C@H](C)O2)[C@H](C)[C@@H](O[C@@H]2O[C@H](C)C[C@H](N(C)C)[C@H]2O)[C@](C)(O)C[C@@H](C)C(=NOCCN2CCOCC2)[C@H](C)[C@@H](O)[C@]1(C)O [Example 35, 9-[O-(2-{morpholin-4-yl}-ethyl)oxime] of erythromycin] | 0.05 (≈ 0.058 µM) | 0.4 (≈ 0.464 µM) | 0.6 (≈ 0.696 µM) | 0.2 (≈ 0.232 µM) | 8 | 2 | 9 | 10 | 1 (≈ 1.16 µM) | 1 (≈ 1.16 µM) | 0.4 (≈ 0.464 µM)
CC[C@H]1OC(=O)[C@H](C)[C@@H](O[C@H]2C[C@@](C)(OC)[C@@H](O)[C@H](C)O2)[C@H](C)[C@@H](O[C@@H]2O[C@H](C)C[C@H](N(C)C)[C@H]2O)[C@](C)(O)C[C@@H](C)C(=NOCC(=O)C(C)(C)C)[C@H](C)[C@@H](O)[C@]1(C)O [Example 15, 9-[0-(3,3-dimethyl-2-oxo-butyl)-oxime] of erythromycin] | 0.1 (≈ 0.118 µM) | 0.2 (≈ 0.236 µM) | 0.6 (≈ 0.708 µM) | 0.1 (≈ 0.118 µM) | 9 | 1 | 10 |  | 0.6 (≈ 0.708 µM) | 1 (≈ 1.18 µM) | 0.6 (≈ 0.708 µM)
CC[C@H]1OC(=O)[C@H](C)[C@@H](O[C@H]2C[C@@](C)(OC)[C@@H](O)[C@H](C)O2)[C@H](C)[C@@H](O[C@@H]2O[C@H](C)C[C@H](N(C)C)[C@H]2O)[C@](C)(O)C[C@@H](C)C(=NOCC(OC)OC)[C@H](C)[C@@H](O)[C@]1(C)O [Example 29, 9-[0-(2,2-dimethoxyethyl)-oxime] of erythromycin] | 0.1 (≈ 0.119 µM) | 0.2 (≈ 0.239 µM) | 0.4 (≈ 0.478 µM) | 0.4 (≈ 0.478 µM) | 8 | 2 | 9 | 10 | 1 (≈ 1.19 µM) | 1 (≈ 1.19 µM) | 0.4 (≈ 0.478 µM)
CCOCON=C1[C@H](C)C[C@@](C)(O)[C@H](O[C@@H]2O[C@H](C)C[C@H](N(C)C)[C@H]2O)[C@@H](C)[C@H](O[C@H]2C[C@@](C)(OC)[C@@H](O)[C@H](C)O2)[C@@H](C)C(=O)O[C@H](CC)[C@@](C)(O)[C@H](O)[C@H]1C [Example 20, 9-[0-(ethoxymethyl)-oxime] of erythromycin] | 0.1 (≈ 0.124 µM) | 0.1 (≈ 0.124 µM) | 0.4 (≈ 0.496 µM) | 0.1 (≈ 0.124 µM) | 4 | 2 | 10 |  | 0.2 (≈ 0.248 µM) | 0.6 (≈ 0.743 µM) | 0.4 (≈ 0.496 µM)
CC[C@H]1OC(=O)[C@H](C)[C@@H](O[C@H]2C[C@@](C)(OC)[C@@H](O)[C@H](C)O2)[C@H](C)[C@@H](O[C@@H]2O[C@H](C)C[C@H](N(C)C)[C@H]2O)[C@](C)(O)C[C@@H](C)C(=NOC(C)CN(CC)CC)[C@H](C)[C@@H](O)[C@]1(C)O (stereo partly shown) [Example 46, 9-[O-(2-diethylamino-isopropyl)-oxime] of erythromycin] | ≤ 0.01 | 0.05 (≈ 0.058 µM) | 0.4 (≈ 0.464 µM) | 0.05 (≈ 0.058 µM) |  |  |  |  | 0.1 (≈ 0.116 µM) | 0.6 (≈ 0.696 µM) | 0.2 (≈ 0.232 µM)
CC[C@H]1OC(=O)[C@H](C)[C@@H](O[C@H]2C[C@@](C)(OC)[C@@H](O)[C@H](C)O2)[C@H](C)[C@@H](O[C@@H]2O[C@H](C)C[C@H](N(C)C)[C@H]2O)[C@](C)(O)C[C@@H](C)C(=NOCOCCN)[C@H](C)[C@@H](O)[C@]1(C)O [Example 24, 9-[0-{(2-aminoethoxy}-methyl)-oxime] of erythromycin] | ≤ 0.01 | 0.1 (≈ 0.122 µM) | 0.4 (≈ 0.487 µM) | 0.05 (≈ 0.0608 µM) |  |  |  |  | 0.2 (≈ 0.243 µM) | 0.4 (≈ 0.487 µM) | 0.1 (≈ 0.122 µM)
CC[C@H]1OC(=O)[C@H](C)[C@@H](O[C@H]2C[C@@](C)(OC)[C@@H](O)[C@H](C)O2)[C@H](C)[C@@H](O[C@@H]2O[C@H](C)C[C@H](N(C)C)[C@H]2O)[C@](C)(O)C[C@@H](C)C(=NOC(C)CN(C)C)[C@H](C)[C@@H](O)[C@]1(C)O (stereo partly shown) [Example 36, 9-[O-(2-dimethylamino-1-methyl-ethyl)-oxime] of erythromycin] | ≤ 0.01 | 0.1 (≈ 0.12 µM) | 0.5 (≈ 0.599 µM) | 0.1 (≈ 0.12 µM) | 9 | 3 | 10 |  | 0.5 (≈ 0.599 µM) | 0.5 (≈ 0.599 µM) | 0.2 (≈ 0.24 µM)
CC[C@H]1OC(=O)[C@H](C)[C@@H](O[C@H]2C[C@@](C)(OC)[C@@H](O)[C@H](C)O2)[C@H](C)[C@@H](O[C@@H]2O[C@H](C)C[C@H](N(C)C)[C@H]2O)[C@](C)(O)C[C@@H](C)C(=NOCC2OCCO2)[C@H](C)[C@@H](O)[C@]1(C)O [Example 30, 9-[0-{(1,3-dioxolan-2-yl)-methyl}-oxime] of erythromycin] | 0.05 (≈ 0.0599 µM) | 0.2 (≈ 0.24 µM) | 0.4 (≈ 0.479 µM) | 0.4 (≈ 0.479 µM) | 7 | 2 | 10 |  | 2 (≈ 2.4 µM) | 0.6 (≈ 0.719 µM) | 0.4 (≈ 0.479 µM)
CC[C@H]1OC(=O)[C@H](C)[C@@H](O[C@H]2C[C@@](C)(OC)[C@@H](O)[C@H](C)O2)[C@H](C)[C@@H](O[C@@H]2O[C@H](C)C[C@H](N(C)C)[C@H]2O)[C@](C)(O)C[C@@H](C)C(=NOCCN)[C@H](C)[C@@H](O)[C@]1(C)O [Example 45, 9-[O-(2-aminoethyl)-oxime] of erythromycin] | ≤ 0.01 | 0.1 (≈ 0.126 µM) | 1 (≈ 1.26 µM) | 0.4 (≈ 0.505 µM) |  |  |  |  | 0.2 (≈ 0.253 µM) | 1 (≈ 1.26 µM) | 0.6 (≈ 0.758 µM)
CCSCCON=C1[C@H](C)C[C@@](C)(O)[C@H](O[C@@H]2O[C@H](C)C[C@H](N(C)C)[C@H]2O)[C@@H](C)[C@H](O[C@H]2C[C@@](C)(OC)[C@@H](O)[C@H](C)O2)[C@@H](C)C(=O)O[C@H](CC)[C@@](C)(O)[C@H](O)[C@H]1C [Example 13, 9-[0-(2-ethylthioethyl)-oxime] of erythromycin] | 0.02 (≈ 0.0239 µM) | 0.1 (≈ 0.119 µM) | 0.4 (≈ 0.478 µM) | 0.01 (≈ 0.0119 µM) |  |  |  |  | 0.4 (≈ 0.478 µM) | 0.6 (≈ 0.717 µM) | 0.4 (≈ 0.478 µM)
CC[C@H]1OC(=O)[C@H](C)[C@@H](O[C@H]2C[C@@](C)(OC)[C@@H](O)[C@H](C)O2)[C@H](C)[C@@H](O[C@@H]2O[C@H](C)C[C@H](N(C)C)[C@H]2O)[C@](C)(O)C[C@@H](C)C(=NOCC2CO2)[C@H](C)[C@@H](O)[C@]1(C)O (stereo partly shown) [Example 47, 9-[0-(oxiramylmethyl)-oxime] of erythromycin] | 0.05 (≈ 0.0621 µM) | 0.2 (≈ 0.248 µM) | 0.4 (≈ 0.497 µM) | 0.2 (≈ 0.248 µM) |  |  |  |  | 0.2 (≈ 0.248 µM) | 0.4 (≈ 0.497 µM) | 0.2 (≈ 0.248 µM)
